Structures can show the parent of a compound that is named as a salt.
Experiments:
[1] = target: T1, human EP1 receptor (Homo sapiens, UniProt P34995); assay: human EP1 calcium mobilisation assay; type: cell-based; design: expressed in transfected cells; settings: CHO-K1 cells, antagonism of PGE2; averages of a number of experiments; read-out: functional pKi value (human EP1 calcium mobilisation assay) (converted)
T1 sequence (P34995 1-402): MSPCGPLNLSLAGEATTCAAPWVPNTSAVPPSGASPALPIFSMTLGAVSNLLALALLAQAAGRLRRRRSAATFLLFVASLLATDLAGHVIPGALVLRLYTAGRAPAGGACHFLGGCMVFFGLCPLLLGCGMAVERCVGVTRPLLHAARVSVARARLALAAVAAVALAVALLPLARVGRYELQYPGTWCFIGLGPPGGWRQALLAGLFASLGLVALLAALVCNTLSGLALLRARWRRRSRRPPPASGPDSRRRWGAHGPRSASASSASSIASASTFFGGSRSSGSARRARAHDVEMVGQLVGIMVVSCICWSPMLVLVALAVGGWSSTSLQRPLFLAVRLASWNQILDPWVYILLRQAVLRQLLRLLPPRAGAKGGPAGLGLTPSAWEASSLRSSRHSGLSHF
Protocol: Briefly, the antagonist properties of compounds are assessed by their ability to inhibit the mobilisation of intracellular calcium ([Ca^2+]i) in response to activation of EP1 or EP3 receptors by the natural agonist hormone prostaglandin E2 (PGE2). Increasing concentrations of antagonist reduce the amount of calcium that a given concentration of PGE2 can mobilise. The net effect is to displace the PGE2 concentration-effect curve to higher concentrations of PGE2. The amount of calcium produced is assessed using a calcium-sensitive fluorescent dye such as Fluo-4, AM and a suitable instrument such as a Fluorimetric Imaging Plate Reader (FLIPR). Increasing amounts of [Ca^2+]i produced by receptor activation increase the amount of fluorescence produced by the dye and give rise to an increasing signal. The signal may be detected using the FLIPR instrument and the data generated may be analysed with suitable curve-fitting software.
The human EP1 or EP3 calcium mobilisation assay (hereafter referred to as ‘the calcium assay’) utilises Chinese hamster ovary-K1 (CHO-K1) cells into which a stable (PCIN; BioTechniques 20 (1996): 102-110) vector containing either EP1 or EP3 cDNA has previously been transfected. Cells are cultured in suitable flasks containing culture medium such as DMEM:F-12 supplemented with 10% v/v foetal calf serum, 2 mM L-glutamine, 0.25 mg/ml geneticin, 100 μM flurbiprofen and 10 μg/ml puromycin.
For assay, cells are harvested using a proprietary reagent that dislodges cells such as Versene. Cells are re-suspended in a suitable quantity of fresh culture media for introduction into a 384-well plate. Following incubation for 24 hours at 37° C. the culture media is replaced with a medium containing Fluo-4 and the detergent pluronic acid, and a further incubation takes place. Concentrations of compounds are then added to the plate in order to construct concentration-effect curves. This may be performed on the FLIPR in order to assess the agonist properties of the compounds. Concentrations of PGE2 are then added to the plate in order to assess the antagonist properties of the compounds.
The data so generated may be analysed by means of a computerised curve-fitting routine. The concentration of compound that elicits a half-maximal inhibition of the calcium mobilisation induced by PGE2 (pIC50) may then be estimated.

[2] = target: T1, human EP1 receptor; assay: Binding assay for the human prostanoid EP1 receptor (radioligand competition); design: expressed in transfected cells; host or cells: CHO-K1 (membranes); settings: CHO-K1 membranes; [3H]-PGE2 for Examples 1-17, 19, 33, 34, 60 and 61, 3-{2-[5-Bromo-2-(2,4-difluorobenzyloxy)-phenyl]-5-methyl-pyrrol-1-yl}-6-[3H3-methoxy]methoxy-benzoic acid for the remaining; averages of a number of experiments; read-out: pIC50 value (binding assay for the human prostanoid EP1 receptor) (converted)
Protocol: Compound potencies are determined using a radioligand binding assay. In this assay compound potencies are determined from their ability to compete with tritiated prostaglandin E2 ([^3H]-PGE2) for binding to the human EP1 receptor.
This assay utilises Chinese hamster ovary-K1 (CHO-K1) cells into which a stable vector containing the EP1 cDNA has previously been transfected. Cells are cultured in suitable flasks containing culture medium such as DMEM:F-12 supplemented with 10% v/v foetal calf serum, 2 mM L-glutamine, 0.25 mg/ml geneticin, 10 μg/ml puromycin and 10 μM indomethacin.
Cells are detached from the culture flasks by incubation in calcium and magnesium free phosphate buffered saline containing 1 mM disodium ethylenediaminetetraacetic acid (Na2EDTA) and […] indomethacin for 5 min. The cells are isolated by centrifugation at 250×g for 5mins and suspended in an ice cold buffer such as 50 mM Tris, 1 mM Na2EDTA, 140 mM NaCl, 10 μM indomethacin (pH 7.4). The cells are homogenised using a Polytron tissue disrupter (2×10 s burst at full setting), centrifuged at 48,000×g for 20mins and the pellet containing the membrane fraction is washed (optional) three times by suspension and centrifugation at 48,000×g for 20mins. The final membrane pellet is suspended in an assay buffer such as 10 mM 2-[N-morpholino]ethanesulphonic acid, 1 mM Na2EDTA, 10 mM MgCl2 (pH 6). Aliquots are frozen at −80° C. until required.
(§1) For the binding assay the cell membranes, competing compounds and [^3H]-PGE2 (3 nM final assay concentration) are incubated in a final volume of 100 μl for 30 min at 30° C. All reagents are prepared in assay buffer. Reactions are terminated by rapid vacuum filtration over GF/B filters using a Brandell cell harvester. The filters are washed with ice cold assay buffer, dried and the radioactivity retained on the filters is measured by liquid scintillation counting in Packard TopCount scintillation counter.
The data are analysed using non linear curve fitting techniques to determine the concentration of compound producing 50% inhibition of specific binding (IC50).
Alternatively a similar assay may be carried out using 3-{2-[5-Bromo-2-(2,4-difluoro-benzyloxy)-phenyl]-5-methyl-pyrrol-1-yl}-6-[^3H3-methoxy]methoxy-benzoic acid instead of [^3H]-PGE2.
For the binding assay using 3-{2-[5-Bromo-2-(2,4-difluoro-benzyloxy)-phenyl]-5-methyl-pyrrol-1-yl}-6-[^3H3-methoxy]methoxy-benzoic acid instead of [^3H]-PGE2 the assay is carried out using a similar procedure to that described above using [^3H]-PGE2 with the following changes:
as §1, with “The” for “For the binding assay the”, “3-{2-[5-Bromo-2-(2,4-difluoro-benzyloxy)-phenyl]-5-methyl-pyrrol-1-yl}-6-[^3H3-methoxy]methoxy-benzoic acid (0.2” for “[^3H]-PGE2 (3”, “400” for “100”, “45” for “30”, “37°” for “30°”, “water at ambient temperature,” for “ice cold assay buffer,”
The preparation of 3-{2-[5-Bromo-2-(2,4-difluoro-benzyloxy)-phenyl]-5-methyl-pyrrol-1-yl}-6-methoxy-benzoic acid is described in WO 03/101959 and in Hall et al, Biorg. Med. Chem. Lett., 2007, 17, 916-920. The tritiated version may be prepared via conventional routes, e.g. from 3-{2-[5-bromo-2-(2,4-difluoro-benzyloxy)-phenyl]-5-methyl-pyrrol-1-yl}-6-hydroxy-benzoic acid or 3-{2-[5-bromo-2-(2,4-difluoro-benzyloxy)-phenyl]-5-methyl-pyrrol-1-yl}-6-hydroxy-benzoic acid methyl ester.

SMILES	Ki [1]	IC50 [2]
Cc1cc(C(=O)NN2CCCCC2)nn1Cc1cc(Cl)cc2cc(C(C)C)oc12 [Example 6, 1-{[5-Chloro-2-(1-methylethyl)-1-benzofuran-7-yl]methyl}-5-methyl-N-1-piperidinyl-1H-pyrazole-3-carboxamide]	≤ 0.316 µM	≤ 0.1 µM
Cc1cc(C(=O)O)nn1Cc1cc(Br)cc2cc(C(C)C)oc12 [Example 19, 1-{[5-Bromo-2-(1-methylethyl)-1-benzofuran-7-yl]methyl}-5-methyl-1H-pyrazole-3-carboxylic Acid]	≤ 0.316 µM	≤ 0.1 µM
Cc1cc(C(=O)NN2CCOCC2)nn1Cc1cc(Br)cc2cc(C(C)C)oc12 [Example 18, 1-{[5-Bromo-2-(1-methylethyl)-1-benzofuran-7-yl]methyl}-5-methyl-N-4-morpholinyl-1H-pyrazole-3-carboxamide]	≤ 0.316 µM	≤ 0.1 µM
Cc1cc(NC(=O)C(C)C)nn1Cc1cc(C#N)cc2cc(C(C)C)oc12 [Example 68, N-(1-{[5-Cyano-2-(1-methylethyl)-1-benzofuran-7-yl]methyl}-5-methyl-1H-pyrazol-3-yl)-2-methylpropanamide]	≤ 0.316 µM	≤ 0.1 µM
Cc1cc(C(=O)NN2CCOCC2)nn1Cc1cc(Cl)cc2cc(C(C)C)oc12 [Example 7, 1-{[5-Chloro-2-(1-methylethyl)-1-benzofuran-7-yl]methyl}-5-methyl-N-4-morpholinyl-1H-pyrazole-3-carboxamide]	≤ 0.316 µM	≤ 0.1 µM
Cc1cc(NC(=O)[C@H]2CC[C@H](O)CC2)nn1Cc1cc(Cl)cc2cc(C(C)C)oc12 [Example 63, trans-N-(1-{[5-chloro-2-(1-methylethyl)-1-benzofuran-7-yl]methyl}-5-methyl-1H-pyrazol-3-yl)-4-hydroxycyclohexanecarboxamide]	–	≤ 0.1 µM

Further lines, results first:

Ki [1]	IC50 [2]	SMILES
≤ 0.316 µM	≤ 0.1 µM	Cc1cc(-c2nc3ccccc3[nH]2)nn1Cc1cc(Cl)cc2cc(C(C)C)oc12 [Example 5, 2-(1-{[5-Chloro-2-(1-methylethyl)-1-benzofuran-7-yl]methyl}-5-methyl-1H-pyrazol-3-yl)-1H-benzimidazole Hydrochloride]
≤ 0.316 µM	≤ 0.1 µM	Cc1cc(C(=O)NC2CCOCC2)nn1Cc1cc(Cl)cc2cc(C(C)C)oc12 [Example 60, 1-{[5-chloro-2-(1-methylethyl)-1-benzofuran-7-yl]methyl}-5-methyl-N-(tetrahydro-2H-pyran-4-yl)-1H-pyrazole-3-carboxamide]
≤ 0.316 µM	≤ 0.1 µM	CC(C)c1cc2cc(Cl)cc(Cc3ccc(-c4nc5cc(CO)ccc5[nH]4)o3)c2o1 [Example 9, [2-(5-{[5-Chloro-2-(1-methylethyl)-1-benzofuran-7-yl]methyl}-2-furanyl)-1H-benzimidazol-5-yl]methanol Hydrochloride]
≤ 0.316 µM	≤ 0.1 µM	Cc1cc(C(=O)Nc2ccc(CN3CCOCC3)cc2)nn1Cc1cc(Br)cc2cc(C(C)C)oc12 [Example 52, 1-{[5-Bromo-2-(1-methylethyl)-1-benzofuran-7-yl]methyl}-5-mthyl-N-[4-(4-morpholinylmethyl)phenyl]-1H-pyrazole-3-carboxamidehydrochloride]
–	≤ 0.1 µM	Cc1cc(NC(=O)c2ccc(CN3CCCC3)cc2)nn1Cc1cc(Cl)cc2cc(C(C)C)oc12 [Example 67]
–	≤ 0.1 µM	Cc1cc(C(=O)O)nn1Cc1cc(Cl)cc2cc(C3CC3)oc12 [Example 23, Sodium 1-[(5-chloro-2-cyclopropyl-1-benzofuran-7-yl)methyl]-5-methyl-1H-pyrazole-3-carboxylate]
–	≤ 0.1 µM	Cc1cc(C(=O)Nc2ccc(CN3CCC(O)CC3)cc2)nn1Cc1cc(Br)cc2cc(C(C)C)oc12 [Example 49, 1-{[5-Bromo-2-(1-methylethyl)-1-benzofuran-7-yl]methyl}-N-{4-[(4-hydroxy-1-piperidinyl)methyl]phenyl}-5-methyl-1H-pyrazole-3-carboxamide Hydrochloride]

From patent publication US20090099169A1, “Benzofuran Compounds As EP1 Receptor Antagonists” (GLAXO GROUP LIMITED, priority 2006, published 2009)
